Data reported in PubChem BioAssay (NCI).
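All cell lines were grown in 96-well plates and treated with compound for 48 hours. Here, GI50 denotes the concentration required for 50% inhibition of growth. TGI denotes the concentration required for complete inhibition of growth.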

What was measured:
Assay in all cases: inhibition of tumour cell growth, NCI panel, 48 h
HCC-2998 colon = test system: HCC-2998 colon
HOP-92 NSCLC = test system: HOP-92 NSCLC
MALME-3M melanoma = test system: MALME-3M melanoma
NCI-H23 lung = test system: NCI-H23 lung
NCI-H522 lung = test system: NCI-H522 lung
SF-295 CNS = test system: SF-295 CNS
SK-OV-3 ovarian = test system: SK-OV-3 ovarian
SN12C renal = test system: SN12C renal
SW-620 colon = test system: SW-620 colon
HOP-62 NSCLC = test system: HOP-62 NSCLC

Row | Compound | GI50 (HCC-2998 colon) [µM] | TGI (HCC-2998 colon) [µM] | GI50 (HOP-92 NSCLC) [µM] | TGI (HOP-92 NSCLC) [µM] | GI50 (MALME-3M melanoma) [µM] | TGI (MALME-3M melanoma) [µM] | GI50 (NCI-H23 lung) [µM] | TGI (NCI-H23 lung) [µM] | GI50 (NCI-H522 lung) [µM] | TGI (NCI-H522 lung) [µM] | GI50 (SF-295 CNS) [µM] | TGI (SF-295 CNS) [µM] | GI50 (SK-OV-3 ovarian) [µM] | TGI (SK-OV-3 ovarian) [µM] | GI50 (SN12C renal) [µM] | TGI (SN12C renal) [µM] | GI50 (SW-620 colon) [µM] | TGI (SW-620 colon) [µM] | GI50 (HOP-62 NSCLC) [µM] | TGI (HOP-62 NSCLC) [µM]
1 | COC(=O)c1cc2c([nH]c3ccccc32)c(-c2nc3cc(N(S(=O)(=O)c4ccc(C)cc4)S(=O)(=O)c4ccc(C)cc4)c(OC)cc3cc2CO)n1 | > 100 | > 100 | > 100 | > 100 | > 100 | > 100 | > 100 | > 100 | > 100 | > 100 | > 100 | > 100 | > 100 | > 100 | > 100 | > 100 | > 100 | > 100 | – | –
2 | Cc1ccc(S(=O)(=O)NC(CCCCN)C(=O)CCl)cc1 (stereo unspecified) | 37.4 | > 100 | 20.2 | 67.1 | 68.7 | > 100 | > 100 | > 100 | 31 | > 100 | 27.2 | 77 | > 100 | > 100 | 35.6 | 77.2 | 43.1 | > 100 | 63.5 | > 100
3 | COCC(O)CN1C(N)=NC(O)C1O (stereo unspecified) | – | > 100 | – | > 100 | – | > 100 | – | > 100 | – | > 100 | – | > 100 | – | – | – | > 100 | – | > 100 | – | > 100
4 | CCN(CC)CCCC(C)NC(=S)N/N=C(\C)c1ccccn1 (stereo unspecified) | 3.52 | > 100 | 3.98 | > 100 | 3.96 | > 100 | 5.22 | > 100 | 3.17 | 9.41 | 4.38 | > 100 | – | – | 4.14 | > 100 | 4.03 | > 100 | 5.86 | 83.1
5 | C/C=C\C(C)=C/C(C)C(=O)CC(O)CC1CC(=O)NC(=O)C1 (stereo unspecified) | – | > 100 | – | > 100 | – | – | – | > 100 | – | 13.6 | – | > 100 | – | > 100 | – | > 100 | – | > 100 | – | > 100
6 | Cc1nc2cc(NC(=O)CN3CCN(CCN4C(=O)c5cccc6cccc(c56)C4=O)CC3)ccc2s1 | 6.66 | > 100 | 2.13 | 9.05 | 4.99 | > 100 | 6.6 | 38.2 | 3.01 | 13.8 | 3.48 | > 100 | 7.65 | > 100 | 5.22 | > 100 | 2.6 | 24.3 | 3.83 | 15.1
7 | CCN(CC)CC(C(=O)Nc1c(C)cccc1C)/C(C)=N/NC(N)=S (stereo unspecified) | – | > 100 | – | > 100 | – | > 100 | – | > 100 | – | > 100 | – | > 100 | – | > 100 | – | – | – | > 100 | – | > 100
8 | Cc1cc(N2CCOCC2)nc(N(CCNc2ccnc3cc(Cl)ccc23)Cc2cccs2)n1 | 2.39 | 5.11 | 0.22 | 1.93 | 2.06 | 3.72 | 3 | > 100 | 1.72 | 3.72 | 1.58 | 3.13 | – | – | 1.9 | 4.01 | 1.92 | 4.18 | 2.44 | 6.52
9 | Cn1c(N)cc(=O)nc1N | – | > 100 | – | – | – | > 100 | – | > 100 | – | > 100 | – | > 100 | – | > 100 | – | > 100 | – | > 100 | – | > 100
10 | CC/C(=C(\c1ccccc1)c1ccc(OCC[N+](C)(C)C)cc1)c1ccccc1 | – | 34.2 | – | – | – | 28.6 | – | – | – | 18.7 | – | 33.8 | – | 34.5 | – | 25.7 | – | 30 | – | 56.5
11 | Nc1nc(N)c2nn(-c3ccc(C(=O)O)cc3)nc2n1 | – | > 100 | – | > 100 | – | – | – | > 100 | – | > 100 | – | > 100 | – | > 100 | – | > 100 | – | > 100 | – | > 100
12 | COc1ccc(C(=O)CC(Cl)=C(Cl)Cl)cc1 | – | – | 19.3 | 53.7 | 20.4 | 43 | 23.3 | 47.1 | 34.3 | 81.5 | 59.9 | > 100 | > 100 | > 100 | 34.6 | > 100 | 33.5 | > 100 | 61.4 | > 100
13 | O=C(CN1C(=O)c2ccccc2C1=O)NC1(C(=O)O)CCCC1 | – | > 100 | – | – | – | > 100 | – | > 100 | – | > 100 | – | > 100 | – | > 100 | – | > 100 | – | > 100 | – | > 100
14 | Nc1cc2[nH]c(=O)c3cc(Cl)ccc3c2cc1Cl | – | > 100 | – | – | – | 44.6 | – | 72.5 | – | 33 | – | 44.2 | – | 15.8 | – | > 100 | – | > 100 | – | 63.1
15 | CCCC1C2=C(C(=O)OC2=O)C2C(CC)CC3=C(C(=O)OC3=O)C12 (stereo unspecified) | – | – | – | > 100 | – | – | – | > 100 | – | – | – | > 100 | – | > 100 | – | > 100 | – | > 100 | – | > 100
16 | Cc1nn(-c2ccccc2)c2ncc3c(c12)C(=O)N(Cc1ccccc1)C3=O | > 100 | > 100 | – | – | 5.24 | > 100 | 9.64 | 66.1 | 19.8 | > 100 | 3.14 | 10.7 | 5.73 | > 100 | 9.29 | > 100 | > 100 | > 100 | 3.73 | 13.8
17 | CC(=O)OC12CCCCC1C1(CCCC1)NC2=O (stereo unspecified) | – | > 100 | – | – | – | > 100 | – | > 100 | – | – | – | > 100 | – | > 100 | – | > 100 | – | > 100 | – | > 100
